Data: PubChem BioAssay (NCI)
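48-hour exposure; five concentrations; linearly interpolated endpoints. The concentration for full growth arrest is given as TGI.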

What was measured:
Test in all cases: NCI-60 cell line screen, 48 h
SW-620 colon = test system: SW-620 colon
SNB-75 CNS = test system: SNB-75 CNS
SNB-19 CNS = test system: SNB-19 CNS
HL-60(TB) leukemia = test system: HL-60(TB) leukemia
M14 melanoma = test system: M14 melanoma
DMS 114 small cell lung = test system: DMS 114 small cell lung
SK-MEL-2 melanoma = test system: SK-MEL-2 melanoma
OVCAR-8 ovarian = test system: OVCAR-8 ovarian
SNB-78 CNS = test system: SNB-78 CNS
CCRF-CEM leukemia = test system: CCRF-CEM leukemia
UACC-257 melanoma = test system: UACC-257 melanoma
XF 498 CNS = test system: XF 498 CNS
DLD-1 colon = test system: DLD-1 colon
RPMI-8226 leukemia = test system: RPMI-8226 leukemia
SN12C renal = test system: SN12C renal
SK-MEL-28 melanoma = test system: SK-MEL-28 melanoma
U251 CNS = test system: U251 CNS
TK-10 renal = test system: TK-10 renal
SR leukemia = test system: SR leukemia
786-0 renal = test system: 786-0 renal
COLO 205 colon = test system: COLO 205 colon
HT29 colon = test system: HT29 colon
NCI-H226 lung = test system: NCI-H226 lung
NCI-H460 lung = test system: NCI-H460 lung
OVCAR-4 ovarian = test system: OVCAR-4 ovarian
ACHN renal = test system: ACHN renal
OVCAR-5 ovarian = test system: OVCAR-5 ovarian
SF-295 CNS = test system: SF-295 CNS
EKVX NSCLC = test system: EKVX NSCLC
SK-OV-3 ovarian = test system: SK-OV-3 ovarian
A498 renal = test system: A498 renal
CAKI-1 renal = test system: CAKI-1 renal
HOP-62 NSCLC = test system: HOP-62 NSCLC
SK-MEL-5 melanoma = test system: SK-MEL-5 melanoma
SF-268 CNS = test system: SF-268 CNS
K-562 leukemia = test system: K-562 leukemia
UACC-62 melanoma = test system: UACC-62 melanoma
HCT-116 colon = test system: HCT-116 colon
M19-MEL melanoma = test system: M19-MEL melanoma
A549 NSCLC = test system: A549 NSCLC
MOLT-4 leukemia = test system: MOLT-4 leukemia
HCC-2998 colon = test system: HCC-2998 colon
OVCAR-3 ovarian = test system: OVCAR-3 ovarian
NCI-H23 lung = test system: NCI-H23 lung
LXFL 529 NSCLC = test system: LXFL 529 NSCLC
MALME-3M melanoma = test system: MALME-3M melanoma
UO-31 renal = test system: UO-31 renal
NCI-H522 lung = test system: NCI-H522 lung
HCT-15 colon = test system: HCT-15 colon
HOP-92 NSCLC = test system: HOP-92 NSCLC
IGROV1 ovarian = test system: IGROV1 ovarian
HOP-18 NSCLC = test system: HOP-18 NSCLC
SF-539 CNS = test system: SF-539 CNS
RXF 393 renal = test system: RXF 393 renal
LOX IMVI melanoma = test system: LOX IMVI melanoma
KM20L2 colon = test system: KM20L2 colon
RXF-631 renal = test system: RXF-631 renal
KM12 colon = test system: KM12 colon
DMS 273 small cell lung = test system: DMS 273 small cell lung

N#CC(c1ccccn1)c1nc2ccccc2[nH]1 (configuration not stated)
TGI (SW-620 colon): > 100 µM
TGI (SNB-75 CNS): > 100 µM
TGI (SNB-19 CNS): > 100 µM
TGI (HL-60(TB) leukemia): > 100 µM
TGI (M14 melanoma): > 100 µM
TGI (DMS 114 small cell lung): > 100 µM
TGI (SK-MEL-2 melanoma): > 100 µM
TGI (OVCAR-8 ovarian): > 100 µM
TGI (SNB-78 CNS): > 100 µM
TGI (CCRF-CEM leukemia): > 100 µM
TGI (UACC-257 melanoma): > 100 µM
TGI (XF 498 CNS): > 100 µM
TGI (DLD-1 colon): > 100 µM
TGI (RPMI-8226 leukemia): > 100 µM
TGI (SN12C renal): > 100 µM
TGI (SK-MEL-28 melanoma): > 100 µM
TGI (U251 CNS): > 100 µM
TGI (TK-10 renal): > 100 µM
TGI (SR leukemia): > 100 µM
TGI (786-0 renal): > 100 µM
TGI (COLO 205 colon): > 100 µM
TGI (HT29 colon): > 100 µM
TGI (NCI-H226 lung): > 100 µM
TGI (NCI-H460 lung): > 100 µM
TGI (OVCAR-4 ovarian): > 100 µM
TGI (ACHN renal): > 100 µM
TGI (OVCAR-5 ovarian): > 100 µM
TGI (SF-295 CNS): > 100 µM
TGI (EKVX NSCLC): > 100 µM
TGI (SK-OV-3 ovarian): > 100 µM
TGI (A498 renal): > 100 µM
TGI (CAKI-1 renal): > 100 µM
TGI (HOP-62 NSCLC): > 100 µM
TGI (SK-MEL-5 melanoma): > 100 µM
TGI (SF-268 CNS): > 100 µM
TGI (K-562 leukemia): > 100 µM
TGI (UACC-62 melanoma): > 100 µM
TGI (HCT-116 colon): > 100 µM
TGI (M19-MEL melanoma): > 100 µM
TGI (A549 NSCLC): > 100 µM
TGI (MOLT-4 leukemia): > 100 µM
TGI (HCC-2998 colon): > 100 µM
TGI (OVCAR-3 ovarian): > 100 µM
TGI (NCI-H23 lung): > 100 µM
TGI (LXFL 529 NSCLC): > 100 µM
TGI (MALME-3M melanoma): > 100 µM
TGI (UO-31 renal): > 100 µM
TGI (NCI-H522 lung): > 100 µM

COc1cc(C(C)O)c[n+](Cc2ccccc2)c1 (configuration not stated)
TGI (SW-620 colon): > 100 µM
TGI (SNB-75 CNS): > 100 µM
TGI (HCT-15 colon): > 100 µM
TGI (SNB-19 CNS): > 100 µM
TGI (HL-60(TB) leukemia): > 100 µM
TGI (HOP-92 NSCLC): > 100 µM
TGI (M14 melanoma): > 100 µM
TGI (DMS 114 small cell lung): > 100 µM
TGI (SK-MEL-2 melanoma): > 100 µM
TGI (IGROV1 ovarian): > 100 µM
TGI (OVCAR-8 ovarian): > 31.6 µM
TGI (SNB-78 CNS): > 100 µM
TGI (CCRF-CEM leukemia): > 100 µM
TGI (UACC-257 melanoma): > 100 µM
TGI (XF 498 CNS): > 31.6 µM
TGI (DLD-1 colon): > 100 µM
TGI (RPMI-8226 leukemia): > 100 µM
TGI (SN12C renal): > 100 µM
TGI (SK-MEL-28 melanoma): > 100 µM
TGI (U251 CNS): > 100 µM
TGI (TK-10 renal): > 100 µM
TGI (SR leukemia): > 100 µM
TGI (HOP-18 NSCLC): > 100 µM
TGI (786-0 renal): > 100 µM
TGI (SF-539 CNS): > 100 µM
TGI (COLO 205 colon): > 100 µM
TGI (RXF 393 renal): > 100 µM
TGI (LOX IMVI melanoma): > 100 µM
TGI (HT29 colon): > 100 µM
TGI (NCI-H226 lung): > 100 µM
TGI (NCI-H460 lung): > 100 µM
TGI (OVCAR-4 ovarian): > 100 µM
TGI (ACHN renal): > 100 µM
TGI (OVCAR-5 ovarian): > 100 µM
TGI (SF-295 CNS): > 100 µM
TGI (EKVX NSCLC): > 100 µM
TGI (SK-OV-3 ovarian): > 100 µM
TGI (KM20L2 colon): > 100 µM
TGI (A498 renal): > 100 µM
TGI (CAKI-1 renal): > 100 µM
TGI (RXF-631 renal): > 100 µM
TGI (HOP-62 NSCLC): > 100 µM
TGI (KM12 colon): > 100 µM
TGI (SK-MEL-5 melanoma): > 100 µM
TGI (SF-268 CNS): > 100 µM
TGI (K-562 leukemia): > 100 µM
TGI (UACC-62 melanoma): > 100 µM
TGI (HCT-116 colon): > 100 µM
TGI (M19-MEL melanoma): > 100 µM
TGI (A549 NSCLC): > 100 µM
TGI (MOLT-4 leukemia): > 100 µM
TGI (HCC-2998 colon): > 100 µM
TGI (OVCAR-3 ovarian): > 100 µM
TGI (DMS 273 small cell lung): > 100 µM
TGI (NCI-H23 lung): > 100 µM
TGI (LXFL 529 NSCLC): > 100 µM
TGI (MALME-3M melanoma): > 100 µM
TGI (UO-31 renal): > 100 µM
TGI (NCI-H522 lung): > 100 µM
